Results: patent US20080176251A1, “Preparation of high purity phenothiazine N-alkylsulfonates and their use in chemiluminescent assays for the measurement of peroxidase acitivity” (Cyanagen Srl, priority 2007, published 2008)

Experiments:
peroxidase enzyme = settings: phenothiazine present as impurity in the enhancer; according to U.S. Pat. No. 6,432,662; cited from earlier work
[1] = tested on: horseradish peroxidase (HRP-Type VIIA); test: luminol-peroxide-peroxidase chemiluminescent reaction, dependence on enhancer concentration (Example 3); format: biochemical; settings: 2.50 mM luminol, 2.00 mM perborate, pH 8.6
Procedure: All measurements reported in Example 3 were carried out with a spectrofluorimeter (Varian Eclipse), Bio/Chemiluminescence Mode (wavelength of emission: 425 nm; emission slit: 20 nm). A series of substrates in 0.1 M, pH 8.6 Tris Buffer is prepared, with the following compositions: • [luminol sodium salt]=2.50 mM • [sodium perborate]=2.00 mM • 3-(phenothiazin-10-yl)propane-1-sulfonate=11.5 μM, 23 μM, 47 μM, 94 μM, 188 μM, 375 μM, 1500 μM e 3000 μM.
To a polymethylmethacrylate fluorimetry cuvette of containing 2 mL of each substrate, is added 10 μL of a solution of 0.5 μg/mL of horseradish peroxidase (HRP-Type VIIA). After mixing the solution with a vortex for a few seconds, measurement of the luminescent signal is initiated. […] The dependence of the chemiluminescent signal (plateau value) for each substrate, is reported graphically in FIG. 1. The luminescent signal grows very rapidly with increasing concentration of the enhancer, 3-(phenothiazin-10-yl)propane-1-sulfonate, until it reaches a maximum value between 0.5 and 1 mM. Further raising the concentration of the enhancer, the chemiluminescent signal begins to decline slowly. At the highest concentration of enhancer, 3.0 mM, the signal is approximately 70% of the maximum value.

[2] = tested on: horseradish peroxidase (HRP-Type VIIA); test: enhanced luminol-peroxide-peroxidase chemiluminescent reaction, dependence on luminol concentration (Example 4); format: biochemical
Procedure: All measurements reported in Example 4 were carried out with a spectrofluorimeter (Varian Eclipse), Bio/Chemiluminescence Mode (wavelength of emission: 425 nm; emission slit: 20 nm). A series of substrates in 0.1 M, pH 8.6 Tris Buffer is prepared, with the following compositions: • [luminol sodium salt]=0.625 mM, 1.25 mM, 2.50 mM, 5.0 mM, 10 mM. • [sodium perborate]=2.00 mM • 3-(phenothiazin-10-yl)propane-1-sulfonate=0.75 mM
To a polymethylmethacrylate fluorimetry cuvette of containing 2 mL of each substrate, is added 10 μL of a solution of 0.5 μg/mL of horseradish peroxidase (HRP-Type VIIA). After mixing the solution with a vortex for a few seconds, measurement of the luminescent signal is initiated. […] The dependence of the chemiluminescent signal (plateau value) for each substrate, is reported graphically in FIG. 2. The luminescent signal gradually grows very rapidly with increasing concentration of the luminol, until it reaches a maximum value between 0.5 and 1 mM. Further raising the concentration of the enhancer, the chemiluminescent signal begins to decline slowly. At the highest concentration of enhancer, 3.0 mM, the signal is approximately 70% of the maximum value. The luminescent signal grows gradually, and reaches a plateau at the highest concentration of luminol used in the experiment, 10 mM.

[3] = tested on: horseradish peroxidase (HRP-Type VIIA); test: pH dependence of the enhanced luminol-peroxide-peroxidase chemiluminescent reaction (Example 5); format: biochemical; settings: 5.0 mM luminol, 4.00 mM perborate, 1.50 mM enhancer; all pH values
Procedure: All measurements reported in Example 5 were carried out with a fluorimeter (Varian Eclipse), Bio/Chemiluminescence Mode (wavelength of emission: 425 nm; emission slit: 10 nm; emission filter: open; photomultiplier voltage: medium). A series of substrates in 0.125 M, pH 9.1 Tris Buffer is prepared, with the following composition: • [luminol sodium salt]=5.0 mM. • [sodium perborate]=4.00 mM • 3-(phenothiazin-10-yl)propane-1-sulfonate=1.50 mM
A series of polymethylmethacrylate fluorimetry cuvettes is prepared, each containing of containing 2 mL of substrate. To each cuvette is added a small amount of 5M or 12M HCl, in order to adjust the pH to the following values: 9.02, 8.76, 8.51, 8.41, 8.28, 8.14 and 7.95, and limiting changes in the total volume to less than 5%. Then to each cuvette are added 10 μL of a 0.5 μg/mL solution of horseradish peroxidase (HRP-Type VIIA). After mixing the solution with a vortex for a few seconds, measurement of the luminescent signal is initiated. […] From the results obtained, which are shown in FIG. 3, it is evident that the chemiluminescent signal reaches the maximum value in the range between pH 8.3 and pH 8.6.

peroxidase = settings: results obtained by Fujirebio, U.S. Pat. No. 5,171,668; cited from earlier work

Row | SMILES | effect on the peroxidase enzyme (peroxidase enzyme) | time course of the chemiluminescent signal ([1]; all enhancer concentrations) | chemiluminescent signal relative to the maximum value ([1]; highest concentration of enhancer, 3.0 mM) | time course of the chemiluminescent signal ([2]; 0.75 mM enhancer, 2.00 mM perborate, luminol 0.625-10 mM, pH 8.6) | luminol concentration at which the luminescent signal reaches a plateau ([2]; 0.75 mM enhancer, 2.00 mM perborate, pH 8.6, highest luminol concentration used) [mM] | chemiluminescent signal relative to the maximum value ([2]; as printed in Example 4: highest concentration of enhancer, 3.0 mM) | time course of the chemiluminescent signal [3] | enhancement of luminol chemiluminescence compared with standard enhancer 4-iodophenol (peroxidase)
1 | c1ccc2c(c1)Nc1ccccc1S2 [phenothiazine] | deactivates the peroxidase enzyme |  |  |  |  |  |  | 
2 | O=S(=O)([O-])CCCN1c2ccccc2Sc2ccccc21.[Na+] [sodium 3-(phenothiazin-10-yl)propane-1-sulfonate] |  | reaches a plateau within a few minutes, and then remains stable for at least thirty minutes | approximately 70% | reaches a plateau within a few minutes, and then remains stable for at least thirty minutes | 10 | approximately 70% | reaches a constant value within a few seconds | not significantly better than those observed with a standard enhancer such as 4-iodophenol
